Test results published in patent US11311522B1 (Cavion, Inc., priority 2018, dated 2022).
“And” between values parts separate entries of the source, which are not always exact repeats. Identical values can stand only once.

Legend:
cardiovascular function = test: Cardiovascular function in anesthetized vagotomized dogs, IV; type: in vivo, dog; settings: 10 mg/kg IV
[1] = test system: patients with essential tremor; test: T-CALM: TETRAS activities of daily living subscale; type: in vivo, human; settings: for TETRAS-ADL Score, Median (minimum, maximum) / TETRAS-ADL Score, Mean (SD): post-hoc
Excerpt: The sum of the individual scores provides the overall score, ranging from 0 to 48. The complete TETRAS ADL Subscale is as follows.
Rate tremor's impact on activities of daily living (0-4 scoring). • 1. Speaking • 0=Normal • 1=Slight voice tremulousness, only when “nervous”. • 2=Mild voice tremor. All words easily understood. • 3=Moderate voice tremor. Some words difficult to understand. • 4=Severe voice tremor. Most words difficult to understand. • 2. Feeding with a spoon • 0=Normal • 1=Slightly abnormal. […] Spills a little. • 3=Moderately abnormal. Spills a lot or changes strategy to complete task such as using two hands or leaning over. • 4=Severely abnormal Cannot feed with a spoon. • 3. Drinking from a glass • 0=Normal. • 1=Slightly abnormal. […] Spills a little. • 3=Moderately abnormal. Spills a lot or changes strategy to complete task such as using two hands or leaning over. • 4=Severely abnormal. Cannot drink from a glass or uses straw or sippy cup. • 4. Hygiene • 0=Normal. • 1=Slightly abnormal. […] Some difficulty but can complete task. • 3=Moderately abnormal. Unable to do most fine tasks such as putting on lipstick or shaving unless changes strategy such as using two hands or using the less affected hand. • 4=Severely abnormal. Cannot complete hygiene activities independently. • 5. Dressing • 0=Normal. • 1=Slightly abnormal. […] Able to do everything but has difficulty due to tremor. • 3=Moderately abnormal. Unable to do most dressing unless uses strategy such as using Velcro, buttoning shirt before putting it on or avoiding shoes with laces. • 4=Severely abnormal. Cannot dress independently. • 6. Pouring • 0=Normal. • 1=Slightly abnormal. […] Must be very careful to avoid spilling but may spill occasionally. • 3=Moderately abnormal. Must use two hands or uses other strategies to avoid spilling. • 4=Severely abnormal. Cannot pour. • 7. Carrying food trays, plates or similar items • 0=Normal • 1=Slightly abnormal. […] Must be very careful to avoid spilling items on food tray. • 3=Moderately abnormal. Uses strategies such as holding tightly against body to carry. • 4=Severely abnormal. Cannot carry food trays or similar items. • 8. Using Keys • 0=Normal • 1=Slightly abnormal. Tremor is present but can insert key with one hand without difficulty. • 2=Mildly abnormal. Commonly misses target but still routinely puts key in lock with one hand. • 3=Moderately abnormal. Needs to use two hands or other strategies to put key in lock. • 4=Severely abnormal. Cannot put key in lock. • 9. Writing • 0=Normal • 1=Slightly abnormal. […] Difficulty writing due to the tremor • 3=Moderately abnormal. Cannot write without using strategies such as holding the writing hand with the other hand, holding pen differently or using large pen. • 4=Severely abnormal. Cannot write. • 10. Working. If patient is retired, ask as if they were still working. If the patient is a housewife, ask the question as it relates to housework: • 0=Normal. • 1=Slightly abnormal. […] Tremor interferes with work; able to do everything, but with errors. • 3=Moderately abnormal. Unable to continue working without using strategies such as changing jobs or using special equipment. • 4=Severely abnormal. Cannot perform any job or household work. • 11. Overall disability with the most affected task (Name task, e.g. using computer mouse, writing, etc) • Task • 0=Normal. • 1=Slightly abnormal. […] Tremor interferes with task but is still able to perform task. • 3=Moderately abnormal. Can do task but must use strategies. • 4=Severely abnormal. Cannot do the task. • 12.
Analyses of the TETRAS-ADL was conducted using the same type of ANCOVA model as described for the TETRAS-PS, using two-sided tests at the alpha=0.05 level of significance (FIG. 2 and Table 2).

[2] = Excretion of 14C-labeled CX-8998 in rats; type: in vivo, rat; settings: 20 mg/kg oral
Excerpt: Glucuronide conjugates of the oxygenated metabolites are detected in human, monkey, and dog hepatocyte preparations. […] However, the abundance of CYP3A5, CYP2C19, and CYP2D6 in human liver microsomes is low (2%-5%) relative to the primary contributors, CYP3A4 (˜30%) and CYP2C9 (˜20%). […] Information on reproductive and developmental toxicology was obtained in a 28-day pivotal female fertility study in rats and in preliminary embryo-fetal development studies in rats and rabbits.

[3] = Day 15, patients Minimally Improved by PGIC, N=17
[4] = Day 28, patients Minimally Improved by CGI-I, N=15
[5] = Day 28, patients Minimally Improved by PGIC, N=10

CC(C)c1ccc(CC(=O)N[C@H](C)c2ccc(OCC(F)(F)F)cn2)cc1 [CX-8998]
Decrease in mean arterial pressure (cardiovascular function): 15% | Increase in PR interval (cardiovascular function): 7% | Change from baseline in TETRAS-ADL, LS mean ([1]; Day 15 (8 mg BID)): −4.5±0.87 and −4.5 | TETRAS-ADL Score, Median (minimum, maximum) ([1]; Day 15, patients Minimally Improved by CGI-I, N=19): −2.0 | TETRAS-ADL Score, Mean (SD) ([1]; Day 15, patients Minimally Improved by CGI-I, N=19, reduction from baseline): −3.7 (4.21) | TETRAS-ADL Score, Mean (SD) [1, 3]: −3.3 (4.27) | TETRAS-ADL Score, Median (minimum, maximum) [1, 3]: −4.0 | Change from baseline in TETRAS-ADL, LS mean ([1]; Day 28 (10 mg BID)): −4.5±1.12 and −4.5 | TETRAS-ADL Score, Mean (SD) [1, 4]: −4.4 (8.10) | TETRAS-ADL Score, Median (minimum, maximum) [1, 4]: −1.0 (−24, 3) | TETRAS-ADL Score, Mean (SD) [1, 5]: −1.6 (3.84) | TETRAS-ADL Score, Median (minimum, maximum) [1, 5]: −1.0 (−7, 3) | >5 to 10 point worsening ([1]; TETRAS-ADL, Day 15): 0 n (%) | >10 point worsening ([1]; TETRAS-ADL, Day 15): 0 n (%) | 0 change ([1]; TETRAS-ADL, Day 28): 5 (13.5%) n (%) | >0 to 1 point improvement ([1]; TETRAS-ADL, Day 28): 2 (5.4%) n (%) | >0 to 1 point worsening ([1]; TETRAS-ADL, Day 28): 3 (8.1%) n (%) | >1 to 2.5 point improvement ([1]; TETRAS-ADL, Day 28): 3 (8.1%) n (%) | >1 to 2.5 point worsening ([1]; TETRAS-ADL, Day 28): 3 (8.1%) n (%) | >2.5 to 5 point improvement ([1]; TETRAS-ADL, Day 28): 7 (18.9%) n (%) | >2.5 to 5 point worsening ([1]; TETRAS-ADL, Day 28): 3 (8.1%) n (%) | >5 to 10 point improvement ([1]; TETRAS-ADL, Day 28): 6 (16.2) n (%) | >5 to 10 point worsening ([1]; TETRAS-ADL, Day 28): 0 n (%) | >10 point improvement ([1]; TETRAS-ADL, Day 28): 5 (13.5%) n (%) | >10 point worsening ([1]; TETRAS-ADL, Day 28): 0 n (%) | Dose excreted in feces as unchanged drug [2]: Less than 1% | Radioactivity in feces [2]: approximately 5% | Radioactivity recovered in bile [2]: 46% | Radioactivity recovered in urine [2]: 43% | Recovered radioactivity excreted in the first day [2]: > 85% | Recovery of label after 72 hours [2]: ~96%
